Values belong to the compound of their own block, whether it stands above or below them. Numbered stars: 1 amine (or outer) side, 2 acyl side, 3 side chain; on linkers, the order of the positions; unused ones are H or OH. Side chains are listed from the residue outwards. Peptide text beside a SMILES is read from it. * marks the point of attachment. X1 = CN(C)c1ccc2c(c1)Oc1cc(N(C)C)ccc1C21OC(=O)c2ccc(C(=O)*)cc21; γGlu = O=C(O)[C@H](CCC(=O)[*:2])N[*:1]; Palmitoyl = CCCCCCCCCCCCCCCC(=O)*; Octanoyl = CCCCCCCC(=O)*; Propionyl = CCC(=O)*
Assays:
[1] = Stability test in human blood plasma; format: in vitro ADME; conditions: for half-life at 10 μM: human
[2] = Metabolic stability in porcine liver homogenates; format: in vitro ADME; conditions: pig, porcine liver homogenate (supernatant)
[3] = target: T1, hY1R (Homo sapiens, UniProt P25929); assay: Inositol phosphate accumulation assay, hY1R; format: cell-based
T1 sequence (P25929 1-384): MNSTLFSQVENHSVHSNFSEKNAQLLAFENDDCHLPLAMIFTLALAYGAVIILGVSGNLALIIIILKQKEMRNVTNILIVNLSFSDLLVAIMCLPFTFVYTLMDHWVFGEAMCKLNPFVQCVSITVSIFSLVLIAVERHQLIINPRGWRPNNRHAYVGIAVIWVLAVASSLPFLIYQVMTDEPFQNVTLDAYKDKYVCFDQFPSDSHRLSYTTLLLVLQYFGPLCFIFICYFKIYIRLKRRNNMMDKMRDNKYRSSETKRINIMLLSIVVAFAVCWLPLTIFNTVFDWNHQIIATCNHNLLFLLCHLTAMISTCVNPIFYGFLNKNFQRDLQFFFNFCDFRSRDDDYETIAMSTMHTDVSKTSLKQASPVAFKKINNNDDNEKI

[4] = target: T2, hY2R (Homo sapiens, UniProt P49146); assay: Inositol phosphate accumulation assay, hY2R; format: cell-based
T2 sequence (P49146 1-381): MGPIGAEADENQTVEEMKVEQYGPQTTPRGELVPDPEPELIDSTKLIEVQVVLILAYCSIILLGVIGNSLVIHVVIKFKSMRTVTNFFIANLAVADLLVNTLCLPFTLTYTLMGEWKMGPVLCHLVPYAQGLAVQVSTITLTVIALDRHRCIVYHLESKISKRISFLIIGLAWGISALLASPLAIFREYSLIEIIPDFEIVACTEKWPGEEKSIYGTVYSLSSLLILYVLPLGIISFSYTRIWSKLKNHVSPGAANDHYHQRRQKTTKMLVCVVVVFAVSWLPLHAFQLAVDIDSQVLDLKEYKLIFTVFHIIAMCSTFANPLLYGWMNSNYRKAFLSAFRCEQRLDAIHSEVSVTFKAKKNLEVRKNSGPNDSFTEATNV

[5] = target: hY4R (Homo sapiens, UniProt P50391); assay: Inositol phosphate accumulation assay, hY4R; format: cell-based
Sequence of hY4R (P50391 whole entry): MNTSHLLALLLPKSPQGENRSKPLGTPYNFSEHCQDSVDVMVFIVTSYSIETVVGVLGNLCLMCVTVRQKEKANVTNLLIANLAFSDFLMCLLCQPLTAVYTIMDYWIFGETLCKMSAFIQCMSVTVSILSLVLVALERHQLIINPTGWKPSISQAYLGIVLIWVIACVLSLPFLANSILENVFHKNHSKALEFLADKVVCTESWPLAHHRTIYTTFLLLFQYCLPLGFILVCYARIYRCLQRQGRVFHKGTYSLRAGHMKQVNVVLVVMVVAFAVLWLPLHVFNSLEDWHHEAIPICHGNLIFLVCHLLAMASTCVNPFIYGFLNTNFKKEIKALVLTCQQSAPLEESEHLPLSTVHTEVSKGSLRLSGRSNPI

[6] = target: T3, hY5R (Homo sapiens, UniProt Q15761); assay: Inositol phosphate accumulation assay, hY5R; format: cell-based
T3 sequence (Q15761 1-445): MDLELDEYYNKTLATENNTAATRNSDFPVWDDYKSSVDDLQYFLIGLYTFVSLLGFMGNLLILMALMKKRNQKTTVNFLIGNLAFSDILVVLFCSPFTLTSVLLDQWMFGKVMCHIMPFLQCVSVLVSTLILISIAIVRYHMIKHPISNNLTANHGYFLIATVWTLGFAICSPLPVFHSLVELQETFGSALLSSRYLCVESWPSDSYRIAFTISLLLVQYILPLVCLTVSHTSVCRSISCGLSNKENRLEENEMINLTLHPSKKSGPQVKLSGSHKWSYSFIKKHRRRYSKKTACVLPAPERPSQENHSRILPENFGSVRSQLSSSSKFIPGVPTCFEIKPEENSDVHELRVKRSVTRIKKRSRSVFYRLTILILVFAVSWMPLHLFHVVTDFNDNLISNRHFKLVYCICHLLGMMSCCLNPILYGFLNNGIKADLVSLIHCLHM

half-life at 10 μM [1]: 11.7 ± 1.11 days | half-life at 10 μM [2]: 876 ± 168 min
Compound: CCCCCCCC(=O)N[C@@H](CCC(=O)NCCCC[C@H](NC(=O)[C@H](CC(N)=O)NC(=O)[C@@H](NC(=O)[C@H](Cc1ccc(O)cc1)NC(=O)[C@H](CCCNC(=N)N)NC(=O)[C@H](CCCNC(=N)N)NC(=O)[C@H](CC(C)C)NC(=O)[C@H](CC(=O)O)NC(=O)[C@H](C)NC(=O)[C@H](C)NC(=O)[C@H](Cc1ccc(O)cc1)NC(=O)[C@H](CCC(N)=O)NC(=O)[C@H](C)NC(=O)[C@H](CCSC)NC(=O)[C@H](CCC(N)=O)NC(=O)[C@H](CCC(=O)O)NC(=O)[C@@H]1CCCN1C(=O)[C@@H](NC(=O)[C@H](C)NC(=O)[C@H](CC(N)=O)NC(=O)[C@H](CC(=O)O)NC(=O)CNC(=O)[C@@H]1CCCN1C(=O)[C@H](Cc1ccc(O)cc1)NC(=O)[C@@H](NC(=O)[C@@H]1CCCN1C(=O)[C@H](CCC(=O)O)NC(=O)[C@H](CC(C)C)NC(=O)[C@@H]1CCCN1C(=O)c1ccc2c(c1)C1(OC2=O)c2ccc(N(C)C)cc2Oc2cc(N(C)C)ccc21)C(C)C)[C@@H](C)O)[C@@H](C)CC)C(=O)N[C@@H](CC(C)C)C(=O)N[C@H](C(=O)N[C@@H](CCCNC(=N)N)C(=O)N1CCC[C@H]1C(=O)N[C@@H](CCCNC(=N)N)C(=O)N[C@@H](Cc1ccc(O)cc1)C(N)=O)[C@@H](C)O)C(=O)O [16b, TAMRA-[K^30(E-Capr)]hPP2–36] (X1-PLEPVYPGDNATPEQMAQYAADLRRYINK([γGlu-Octanoyl])LTRPRY-NH2)

half-life at 10 μM [1]: 19.7 ± 0.721 days | half-life at 10 μM [2]: 2800 ± 396 min
Compound: CCC(=O)N[C@@H](CCC(=O)NCCCC[C@H](NC(=O)[C@H](CC(N)=O)NC(=O)[C@@H](NC(=O)[C@H](Cc1ccc(O)cc1)NC(=O)[C@H](CCCNC(=N)N)NC(=O)[C@H](CCCNC(=N)N)NC(=O)[C@H](CC(C)C)NC(=O)[C@H](CC(=O)O)NC(=O)[C@H](C)NC(=O)[C@H](C)NC(=O)[C@H](Cc1ccc(O)cc1)NC(=O)[C@H](CCC(N)=O)NC(=O)[C@H](C)NC(=O)[C@H](CCSC)NC(=O)[C@H](CCC(N)=O)NC(=O)[C@H](CCC(=O)O)NC(=O)[C@@H]1CCCN1C(=O)[C@@H](NC(=O)[C@H](C)NC(=O)[C@H](CC(N)=O)NC(=O)[C@H](CC(=O)O)NC(=O)CNC(=O)[C@@H]1CCCN1C(=O)[C@H](Cc1ccc(O)cc1)NC(=O)[C@@H](NC(=O)[C@@H]1CCCN1C(=O)[C@H](CCC(=O)O)NC(=O)[C@H](CC(C)C)NC(=O)[C@@H]1CCCN1C(=O)c1ccc2c(c1)C1(OC2=O)c2ccc(N(C)C)cc2Oc2cc(N(C)C)ccc21)C(C)C)[C@@H](C)O)[C@@H](C)CC)C(=O)N[C@@H](CC(C)C)C(=O)N[C@H](C(=O)N[C@@H](CCCNC(=N)N)C(=O)N1CCC[C@H]1C(=O)N[C@@H](CCCNC(=N)N)C(=O)N[C@@H](Cc1ccc(O)cc1)C(N)=O)[C@@H](C)O)C(=O)O [15b, TAMRA-[K^30(E-Prop)]hPP2–36] (X1-PLEPVYPGDNATPEQMAQYAADLRRYINK([γGlu-Propionyl])LTRPRY-NH2)

fold increased half-life in human blood plasma compared to control peptide 14b ([1]; 37°C): more than 10 fold | half-life at 10 μM [1]: 45.3 ± 11.8 days | half-life at 10 μM [2]: 708 ± 48 min
Compound: CCCCCCCCCCCCCCCC(=O)N[C@@H](CCC(=O)NCCCC[C@H](NC(=O)[C@H](CC(N)=O)NC(=O)[C@@H](NC(=O)[C@H](Cc1ccc(O)cc1)NC(=O)[C@H](CCCNC(=N)N)NC(=O)[C@H](CCCNC(=N)N)NC(=O)[C@H](CC(C)C)NC(=O)[C@H](CC(=O)O)NC(=O)[C@H](C)NC(=O)[C@H](C)NC(=O)[C@H](Cc1ccc(O)cc1)NC(=O)[C@H](CCC(N)=O)NC(=O)[C@H](C)NC(=O)[C@H](CCSC)NC(=O)[C@H](CCC(N)=O)NC(=O)[C@H](CCC(=O)O)NC(=O)[C@@H]1CCCN1C(=O)[C@@H](NC(=O)[C@H](C)NC(=O)[C@H](CC(N)=O)NC(=O)[C@H](CC(=O)O)NC(=O)CNC(=O)[C@@H]1CCCN1C(=O)[C@H](Cc1ccc(O)cc1)NC(=O)[C@@H](NC(=O)[C@@H]1CCCN1C(=O)[C@H](CCC(=O)O)NC(=O)[C@H](CC(C)C)NC(=O)[C@@H]1CCCN1C(=O)c1ccc2c(c1)C1(OC2=O)c2ccc(N(C)C)cc2Oc2cc(N(C)C)ccc21)C(C)C)[C@@H](C)O)[C@@H](C)CC)C(=O)N[C@@H](CC(C)C)C(=O)N[C@H](C(=O)N[C@@H](CCCNC(=N)N)C(=O)N1CCC[C@H]1C(=O)N[C@@H](CCCNC(=N)N)C(=O)N[C@@H](Cc1ccc(O)cc1)C(N)=O)[C@@H](C)O)C(=O)O [18b, TAMRA-[K^30(E-Pam)]hPP2–36] (X1-PLEPVYPGDNATPEQMAQYAADLRRYINK([γGlu-Palmitoyl])LTRPRY-NH2)

half-life at 10 μM [1]: ~4.17 days | half-life at 10 μM [2]: 1180 ± 24 min
Compound: CC[C@H](C)[C@H](NC(=O)[C@H](Cc1ccc(O)cc1)NC(=O)[C@H](CCCNC(=N)N)NC(=O)[C@H](CCCNC(=N)N)NC(=O)[C@H](CC(C)C)NC(=O)[C@H](CC(=O)O)NC(=O)[C@H](C)NC(=O)[C@H](C)NC(=O)[C@H](Cc1ccc(O)cc1)NC(=O)[C@H](CCC(N)=O)NC(=O)[C@H](C)NC(=O)[C@H](CCSC)NC(=O)[C@H](CCC(N)=O)NC(=O)[C@H](CCC(=O)O)NC(=O)[C@@H]1CCCN1C(=O)[C@@H](NC(=O)[C@H](C)NC(=O)[C@H](CC(N)=O)NC(=O)[C@H](CC(=O)O)NC(=O)CNC(=O)[C@@H]1CCCN1C(=O)[C@H](Cc1ccc(O)cc1)NC(=O)[C@@H](NC(=O)[C@@H]1CCCN1C(=O)[C@H](CCC(=O)O)NC(=O)[C@H](CC(C)C)NC(=O)[C@@H]1CCCN1)C(C)C)[C@@H](C)O)C(=O)N[C@@H](CC(N)=O)C(=O)N[C@@H](CCCCNC(=O)c1ccc2c(c1)C1(OC2=O)c2ccc(N(C)C)cc2Oc2cc(N(C)C)ccc21)C(=O)N[C@@H](CC(C)C)C(=O)N[C@H](C(=O)N[C@@H](CCCNC(=N)N)C(=O)N1CCC[C@H]1C(=O)N[C@@H](CCCNC(=N)N)C(=O)N[C@@H](Cc1ccc(O)cc1)C(N)=O)[C@@H](C)O [compound 20, [K^30(TAMRA)]hPP2–36] (H-PLEPVYPGDNATPEQMAQYAADLRRYINK(X1)LTRPRY-NH2)

EC50 [3]: 76.2 nM | Emax ([3]; read-out: hY1R Emax): 85 ± 3% | EC50 [4]: 21.1 nM | Emax ([4]; read-out: hY2R Emax): 92 ± 3% | EC50 [5]: 1.2 nM | Emax ([5]; read-out: hY4R Emax): 78 ± 4% | EC50 [6]: 1.6 nM | Emax ([6]; read-out: hY5R Emax): 75 ± 5%
Compound: CCCCCCCCCCCCCCCC(=O)N[C@@H](CCC(=O)NCCCC[C@H](NC(=O)[C@H](CC(N)=O)NC(=O)[C@@H](NC(=O)[C@H](Cc1ccc(O)cc1)NC(=O)[C@H](CCCNC(=N)N)NC(=O)[C@H](CCCNC(=N)N)NC(=O)[C@H](CC(C)C)NC(=O)[C@H](CC(=O)O)NC(=O)[C@H](C)NC(=O)[C@H](C)NC(=O)[C@H](Cc1ccc(O)cc1)NC(=O)[C@H](CCC(N)=O)NC(=O)[C@H](C)NC(=O)[C@H](CCSC)NC(=O)[C@H](CCC(N)=O)NC(=O)[C@H](CCC(=O)O)NC(=O)[C@@H]1CCCN1C(=O)[C@@H](NC(=O)[C@H](C)NC(=O)[C@H](CC(N)=O)NC(=O)[C@H](CC(=O)O)NC(=O)CNC(=O)[C@@H]1CCCN1C(=O)[C@H](Cc1ccc(O)cc1)NC(=O)[C@@H](NC(=O)[C@@H]1CCCN1C(=O)[C@H](CCC(=O)O)NC(=O)[C@H](CC(C)C)NC(=O)[C@@H]1CCCN1)C(C)C)[C@@H](C)O)[C@@H](C)CC)C(=O)N[C@@H](CC(C)C)C(=O)N[C@H](C(=O)N[C@@H](CCCNC(=N)N)C(=O)N1CCC[C@H]1C(=O)N[C@@H](CCCNC(=N)N)C(=O)N[C@@H](Cc1ccc(O)cc1)C(N)=O)[C@@H](C)O)C(=O)O [18a, [K^30(E-Pam)]hPP2–36] (H-PLEPVYPGDNATPEQMAQYAADLRRYINK([γGlu-Palmitoyl])LTRPRY-NH2)

— publication PMC5518309 (ChemMedChem, 2014)
